Results published in ChEMBL document CHEMBL3244079, “Synthesis and antiarrhythmic activity of 2-dialkylaminoalkyl-9-phenyl-1H-indeno[2,1-c]pyridine derivatives” (J Med Chem, 1978).
Activity calls are given as the source filed them. The calls are words filed in the database; no cut-off is given here.

Tests used:
Canis familiaris [1] = assay: Antiarrhythmic activity in iv dosed mongrel dog assessed as reduction in ouabain-induced ventricular arrhythmia measured as duration of action at MED by electrocardiographic analysis; format: functional, Canis lupus familiaris, Heart
Canis familiaris [2] = species: Canis familiaris; assay: Antiarrhythmic activity in mongrel dog Harris two-stage coronary ligation model assessed as reduction in ectopic beats by electrocardiographic analysis; format: functional; conditions: Canis lupus familiaris, Heart; for minimal effective dose: read-out: MED
Heart = assay: Antiarrhythmic activity in rabbit heart assessed as reduction in aconitine-induced ventricular arrhythmia at 40 mg/l after 30 mins by electrocardiographic analysis; format: functional, tissue-based; conditions: Oryctolagus cuniculus
Canis familiaris [3] = assay: Antiarrhythmic activity in iv dosed mongrel dog assessed as reduction in ouabain-induced ventricular arrhythmia by electrocardiographic analysis; format: functional; conditions: Canis lupus familiaris, Heart; for minimal effective dose: read-out: MED
Canis familiaris [4] = species: Canis familiaris; assay: Toxicity in mongrel dog Harris two-stage coronary ligation model; format: organism-based, Canis lupus familiaris; conditions: in vivo
Canis familiaris [5] = species: Canis familiaris; assay: Antiarrhythmic activity in mongrel dog Harris two-stage coronary ligation model assessed as reduction in ectopic beats measured as duration of action at MED by electrocardiographic analysis; format: functional, Canis lupus familiaris, Heart

| SMILES | Time (Canis familiaris [1]) | Activity (Canis familiaris [2]) | Activity (Heart) | minimal effective dose (Canis familiaris [3]) | Activity (Canis familiaris [4]) | minimal effective dose (Canis familiaris [2]) | Time (Canis familiaris [5]) | Activity (Canis familiaris [3]) |
| --- | --- | --- | --- | --- | --- | --- | --- | --- |
| Br.CN(C)CCCN1CC=C2C(=C(c3ccccc3)c3ccccc32)C1.O | 40 min | inactive | Active | 15 mg/kg |  |  |  |  |
| Cl.O.c1ccc([C@H]2c3ccccc3[C@@H]3CCN(CCCN4CCCCC4)C[C@H]23)cc1 (relative stereo) | 30 min |  | Active | 10 mg/kg | Toxic |  |  |  |
| Br.C1=C2C(=C(c3ccccc3)c3ccccc32)CN(CCCN2CCCCC2)C1.O | 35 min |  | Active | 10 mg/kg |  | 7.5 mg/kg | 12 min |  |
| CN(C)CCCN1CCC(O)(c2ccccc2)C(C(=O)c2ccccc2)C1 (stereo not drawn) |  |  | Active |  |  |  |  | inactive |
| Br.CN(C)CCN1CC[C@H]2c3ccccc3[C@H](c3ccccc3)[C@H]2C1 (relative stereo) | 17 min | inactive | Active | 20 mg/kg |  |  |  |  |
| CCN(CC)CCCN1CC[C@H]2c3ccccc3[C@@H](c3ccccc3)[C@H]2C1.Cl.O (relative stereo) | 15 min |  | Active | 20 mg/kg |  | 12.5 mg/kg | 10 min |  |
| Br.CCN(CC)CCCN1CC=C2C(=C(c3ccccc3)c3ccccc32)C1.O | 35 min |  | Active | 20 mg/kg |  | 15 mg/kg | 10 min |  |
| CN(C)CCCN1CC[C@H]2c3ccccc3[C@@H](c3ccccc3)[C@H]2C1.Cl.O (relative stereo) | 15 min |  | Active | 10 mg/kg |  | 10 mg/kg | 17.5 min |  |
| C=C[C@H]1CN2CC[C@H]1C[C@@H]2[C@@H](O)c1ccnc2ccc(OC)cc12 [QUINIDINE] | >30 min |  | Active | 7.5 mg/kg |  | 12.8 mg/kg | 23 min |  |
| c1ccc([C@H]2c3ccccc3[C@@H]3CCNC[C@H]23)cc1 (relative stereo) |  |  | Active |  |  |  |  | inactive |
| CN(C)CCCN1CC[C@H]2c3ccccc3[C@H](c3ccccc3)[C@H]2C1 (relative stereo) |  |  | Active |  |  |  |  | inactive |
| O=C(c1ccccc1)C1CN(CCCN2CCCCC2)CCC1(O)c1ccccc1 (stereo not drawn) | 15 min | inactive | Active | 10 mg/kg |  |  |  |  |
| CC(C)N(CCC(C(N)=O)(c1ccccc1)c1ccccn1)C(C)C.O=P(O)(O)O (stereo not drawn) [DISOPYRAMIDE PHOSPHATE] | >30 min |  |  | 6.6 mg/kg |  | 7 mg/kg | 23 min |  |
| Br.C1=C2C(=C(c3ccccc3)c3ccccc32)CN(Cc2ccccc2)C1 | 17 min | inactive | Active | 15 mg/kg |  |  |  |  |
| Br.c1ccc([C@@H]2c3ccccc3[C@@H]3CCNC[C@H]23)cc1 (relative stereo) | 15 min |  | Active | 17.5 mg/kg |  | 15 mg/kg | 12.5 min |  |
| Cl.O.c1ccc([C@@H]2c3ccccc3[C@@H]3CCN(CCCN4CCCCC4)C[C@H]23)cc1 (relative stereo) | 15 min | inactive |  | 15 mg/kg |  |  |  |  |
| Br.CCN(CC)CCCN1CC[C@H]2c3ccccc3[C@H](c3ccccc3)[C@H]2C1.O (relative stereo) | 19 min |  |  | 15 mg/kg |  |  |  |  |
| CCN(CC)CCN1CC[C@H]2c3ccccc3[C@H](c3ccccc3)[C@H]2C1 (relative stereo) |  |  | Active |  |  |  |  | inactive |
| CCN(CC)CCCN1CCC(O)(c2ccccc2)C(C(=O)c2ccccc2)C1 (stereo not drawn) | 32 min |  |  | 12.5 mg/kg |  | 7.5 mg/kg | 16 min |  |
| CN(C)CCN1CCC(O)(c2ccccc2)C(C(=O)c2ccccc2)C1 (stereo not drawn) |  |  | Active |  |  |  |  | inactive |
| Br.CCN(CC)CCN1CC[C@H]2c3ccccc3[C@@H](c3ccccc3)[C@H]2C1.O (relative stereo) | 25 min |  | Active | 10 mg/kg |  | 12.5 mg/kg | 12.5 min |  |
